Results published in the supplement of paper PMC11061612.

What was measured:
Capivasertib = compound: C1CN(CCC1(C(=O)N[C@@H](CCO)C2=CC=C(C=C2)Cl)N)C3=NC=NC4=C3C=CN4 [Capivasertib]; details: max 10 µM
In short: (§1)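 Following 24 hours at 37°C and 5% CO2, cancer cell lines in 1536-well plates with 7.5 μl DMEM/F12 or RPMI and 10% FBS were dosed for 72 hours, final DMSO typically being 0.2%. CellTiter-Glo 2.0 luminescence, scaled between blank-well and DMSO-well means, gave the viability readout. Dose responses were fitted to a two-parameter logistic curve with a non-linear mixed effects model, and the single-agent IC50 was derived from this fit.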

AZD1775 = compound: C=CCn1c(=O)c2cnc(Nc3ccc(N4CCN(C)CC4)cc3)nc2n1-c1cccc(C(C)(C)O)n1 [AZD1775]; details: max 3 µM
In short: as §1

Trametinib = compound: CC(=O)Nc1cccc(-n2c(=O)n(C3CC3)c(=O)c3c(Nc4ccc(I)cc4F)n(C)c(=O)c(C)c32)c1 [Trametinib]; details: max 1 µM
In short: as §1

Palbociclib = compound: CC(=O)c1c(C)c2cnc(Nc3ccc(N4CCNCC4)cn3)nc2n(C2CCCC2)c1=O [Palbociclib]; details: max 10 µM
In short: as §1

AZD1390 = compound: CC(C)n1c(=O)n(C)c2cnc3cc(F)c(-c4ccc(OCCCN5CCCCC5)nc4)cc3c21 [AZD1390]; details: max 0.3 µM
In short: as §1

Venetoclax = compound: CC1(C)CCC(CN2CCN(c3ccc(C(=O)NS(=O)(=O)c4ccc(NCC5CCOCC5)c([N+](=O)[O-])c4)c(Oc4cnc5[nH]ccc5c4)c3)CC2)=C(c2ccc(Cl)cc2)C1 [Venetoclax]; details: max 1 µM
In short: as §1

Dasatinib = compound: CC1=C(C(=CC=C1)Cl)NC(=O)C2=CN=C(S2)NC3=CC(=NC(=N3)C)N4CCN(CC4)CCO [Dasatinib]; details: max 2 µM
In short: as §1

SG3199 = compound: CC1=CN2[C@@H](C1)C=NC3=CC(=C(C=C3C2=O)OC)OCCCCCOC4=C(C=C5C(=C4)N=C[C@@H]6CC(=CN6C5=O)C)OC [SG3199]; details: max 0.001 µM
In short: as §1

AZD2811 = compound: CCN(CCO)CCCOc1ccc2c(Nc3cc(CC(=O)Nc4cccc(F)c4)[nH]n3)ncnc2c1 [AZD2811]; details: max 1 µM
In short: as §1

SN-38 = compound: CCc1c2c(nc3ccc(O)cc13)-c1cc3c(c(=O)n1C2)COC(=O)[C@]3(O)CC [SN-38]; details: max 0.3 µM
In short: as §1

AZD0156 = compound: CN(C)CCCOc1ccc(-c2ccc3ncc4c(c3c2)n(C2CCOCC2)c(=O)n4C)cn1 [AZD0156]; details: max 3 µM
In short: as §1

AZD4320 = compound: CN(CC[C@H](CSC1=CC=CC=C1)NC2=C(C=C(C=C2)S(=O)(=O)NC(=O)C3=CC=C(C=C3)N4CCC(CC4)[C@H](C5=CC=CC=C5C6=CC=C(C=C6)Cl)O)S(=O)(=O)C(F)(F)F)CCO [AZD4320]; details: max 1 µM
In short: as §1

Alisertib = compound: COc1cc(Nc2ncc3c(n2)-c2ccc(Cl)cc2C(c2c(F)cccc2OC)=NC3)ccc1C(=O)O [Alisertib]; details: max 10 µM
In short: as §1

Gefitinib = compound: COc1cc2ncnc(Nc3ccc(F)c(Cl)c3)c2cc1OCCCN1CCOCC1 [Gefitinib]; details: max 10 µM
In short: as §1

Prexasertib = compound: COc1cccc(OCCCN)c1-c1cc(Nc2cnc(C#N)cn2)n[nH]1 [Prexasertib]; details: max 1 µM
In short: as §1

Doxorubicin = compound: COc1cccc2c1C(=O)c1c(O)c3c(c(O)c1C2=O)C[C@@](O)(C(=O)CO)C[C@@H]3O[C@H]1C[C@H](N)[C@H](O)[C@H](C)O1 [Doxorubicin]; details: max 1 µM
In short: as §1

AZD5153 = compound: COc1nnc2ccc(N3CCC(c4ccc(OCCN5CCN(C)C(=O)[C@H]5C)cc4)CC3)nn12 [AZD5153]; details: max 1 µM
In short: as §1

Lapatinib = compound: CS(=O)(=O)CCNCc1ccc(-c2ccc3ncnc(Nc4ccc(OCc5cccc(F)c5)c(Cl)c4)c3c2)o1 [Lapatinib]; details: max 10 µM
In short: as §1

AZD8186 = compound: C[C@@H](Nc1cc(F)cc(F)c1)c1cc(C(=O)N(C)C)cc2c(=O)cc(N3CCOCC3)oc12 [AZD8186]; details: max 3 µM
In short: as §1

Crizotinib = compound: C[C@@H](Oc1cc(-c2cnn(C3CCNCC3)c2)cnc1N)c1c(Cl)ccc(F)c1Cl [Crizotinib]; details: max 10 µM
In short: as §1

Savolitinib = compound: C[C@@H](c1ccc2nccn2c1)n1nnc2ncc(-c3cnn(C)c3)nc21 [Savolitinib]; details: max 1 µM
In short: as §1

AZD6738 = compound: C[C@@H]1COCCN1C2=NC(=NC(=C2)C3(CC3)[S@](=N)(=O)C)C4=C5C=CNC5=NC=C4 [AZD6738]; details: max 10 µM
In short: as §1

AZD5991 = compound: Cc1c2c(nn1C)CSCc1cc(n(C)n1)CSc1cc(c3ccccc3c1)OCCCc1c(C(=O)O)n(C)c3c-2c(Cl)ccc13 [AZD5991]; details: max 1 µM
In short: as §1

AZD7648 = compound: Cc1cc2ncnn2cc1Nc1ncc2c(n1)n(C1CCOCC1)c(=O)n2C [AZD7648]; details: max 10 µM
In short: as §1

Taselisib = compound: Cc1nc(-c2cn3c(n2)-c2ccc(-c4cnn(C(C)(C)C(N)=O)c4)cc2OCC3)n(C(C)C)n1 [Taselisib]; details: max 10 µM
In short: as §1

Selumetinib = compound: Cn1cnc2c(F)c(Nc3ccc(Br)cc3Cl)c(C(=O)NOCCO)cc21 [Selumetinib]; details: max 10 µM
In short: as §1

MK-2206 = compound: NC1(c2ccc(-c3nc4ccn5c(=O)[nH]nc5c4cc3-c3ccccc3)cc2)CCC1 [MK-2206]; details: max 10 µM
In short: as §1

Olaparib = compound: O=C(c1cc(Cc2n[nH]c(=O)c3ccccc23)ccc1F)N1CCN(C(=O)C2CC2)CC1 [Olaparib]; details: max 10 µM
In short: as §1

Row | Cell Line | IC50, cell viability 72 h (Capivasertib) | IC50, cell viability 72 h (AZD1775) | IC50, cell viability 72 h (Trametinib) | IC50, cell viability 72 h (Palbociclib) | IC50, cell viability 72 h (AZD1390) | IC50, cell viability 72 h (Venetoclax) | IC50, cell viability 72 h (Dasatinib) | IC50, cell viability 72 h (SG3199) | IC50, cell viability 72 h (AZD2811) | IC50, cell viability 72 h (SN-38) | IC50, cell viability 72 h (AZD0156) | IC50, cell viability 72 h (AZD4320) | IC50, cell viability 72 h (Alisertib) | IC50, cell viability 72 h (Gefitinib) | IC50, cell viability 72 h (Prexasertib) | IC50, cell viability 72 h (Doxorubicin) | IC50, cell viability 72 h (AZD5153) | IC50, cell viability 72 h (Lapatinib) | IC50, cell viability 72 h (AZD8186) | IC50, cell viability 72 h (Crizotinib) | IC50, cell viability 72 h (Savolitinib) | IC50, cell viability 72 h (AZD6738) | IC50, cell viability 72 h (AZD5991) | IC50, cell viability 72 h (AZD7648) | IC50, cell viability 72 h (Taselisib) | IC50, cell viability 72 h (Selumetinib) | IC50, cell viability 72 h (MK-2206) | IC50, cell viability 72 h (Olaparib)
1 | NCI-H596 (Other Solid Carcinomas) | > 10 µM | 1.45 µM | > 1 µM | > 10 µM | > 0.3 µM | > 1 µM | > 2 µM | > 0.001 µM | > 1 µM | > 0.3 µM | > 3 µM | > 1 µM | > 10 µM | > 10 µM | 0.866 µM | > 1 µM | 0.301 µM | > 10 µM | > 3 µM | > 10 µM | > 1 µM | > 10 µM | > 1 µM | > 10 µM | 4.95 µM | > 10 µM | > 10 µM | > 10 µM
2 | NCI-H1876 (Small Cell Lung Carcinoma) | > 10 µM | 0.33 µM | > 1 µM | > 10 µM | > 0.3 µM | > 1 µM | > 2 µM | > 0.001 µM | 0.149 µM | 0.00103 µM | > 3 µM | 0.176 µM | 0.265 µM | > 10 µM | 0.0292 µM | 0.221 µM | > 1 µM | > 10 µM | > 3 µM | 5.91 µM | > 1 µM | 4.71 µM | > 1 µM | > 10 µM | 3.9 µM | > 10 µM | > 10 µM | 4.44 µM
3 | OAW-28 (Ovarian Carcinoma) | > 10 µM | > 3 µM | > 1 µM | > 10 µM | > 0.3 µM | > 1 µM | > 2 µM | > 0.001 µM | > 1 µM | 0.0114 µM | > 3 µM | 0.176 µM | > 10 µM | > 10 µM | 0.72 µM | > 1 µM | > 1 µM | > 10 µM | > 3 µM | > 10 µM | > 1 µM | > 10 µM | > 1 µM | > 10 µM | 6.13 µM | > 10 µM | > 10 µM | > 10 µM
4 | P32-ISH (Burkitt's Lymphoma) | 8.02 µM | 0.218 µM | > 1 µM | 6.15 µM | > 0.3 µM | > 1 µM | > 2 µM | > 0.001 µM | 0.077 µM | 0.00182 µM | > 3 µM | > 1 µM | 0.02 µM | > 10 µM | 0.00537 µM | 0.303 µM | 0.136 µM | 6.9 µM | > 3 µM | 2.27 µM | > 1 µM | 2.6 µM | 0.0501 µM | > 10 µM | 8.18 µM | > 10 µM |  | > 10 µM
5 | PA-TU-8988T (Pancreatic Carcinoma) | > 10 µM | 1.29 µM | > 1 µM | > 10 µM | > 0.3 µM | > 1 µM | 0.664 µM | > 0.001 µM | > 1 µM | 0.185 µM | > 3 µM | > 1 µM | > 10 µM | > 10 µM | > 1 µM | 0.94 µM | 0.193 µM | > 10 µM | > 3 µM | > 10 µM | > 1 µM | > 10 µM | > 1 µM | > 10 µM | 6.15 µM | > 10 µM |  | > 10 µM
6 | PL4 (Pancreatic Carcinoma) | > 10 µM | 1.36 µM | 0.106 µM | > 10 µM | > 0.3 µM | > 1 µM | 0.634 µM | > 0.001 µM | > 1 µM | 0.0435 µM | > 3 µM | > 1 µM | 8.07 µM | > 10 µM | 0.117 µM | > 1 µM | 0.969 µM | > 10 µM | > 3 µM | > 10 µM | > 1 µM | 6.41 µM | > 1 µM | > 10 µM | 2.26 µM | > 10 µM |  | > 10 µM
7 | Raji (Burkitt's Lymphoma) | > 10 µM | 0.472 µM | > 1 µM | > 10 µM | > 0.3 µM | > 1 µM | > 2 µM | > 0.001 µM | > 1 µM | 0.0043 µM | > 3 µM | > 1 µM | > 10 µM | > 10 µM | 0.0187 µM | 0.114 µM | 0.371 µM | > 10 µM | > 3 µM | > 10 µM | > 1 µM | 3.81 µM | 0.506 µM | > 10 µM | > 10 µM | > 10 µM |  | > 10 µM
